Test results reported in article PMC8152814, “The modulatory role of sulfated and non-sulfated small molecule heparan sulfate-glycomimetics in endothelial dysfunction: absolute structural clarification, molecular docking and simulated dynamics, SAR analyses and ADMET studies” (RSC Medicinal Chemistry, 2021).

Legend:
[1] = Microsomal metabolic stability, mouse liver microsomes; details: liver microsomes (pooled), pH 7.4
Protocol: MLM assay (controls: diphenhydramine and diazepam). hERG assay (controls: quinidine and dimethylsulfoxide).
Pooled liver microsomes (final protein concentration 0.5 mg/mL), 0.1 M phosphate buffer pH
7.4 and test compound (final substrate concentration 3 µM; final DMSO concentration 0.25 %)
are pre-incubated at 37 °C prior to the addition of NADPH (final concentration 1 mM) to initiate
included for each compound tested where 0.1 M phosphate buffer pH 7.4 is added instead of
are stopped by transferring 20 µL of incubate to 60 µL methanol at the appropriate time points.
The termination plates are centrifuged at 2,500 rpm for 20 min at 4 °C to precipitate the protein.
Following protein precipitation, the sample supernatants are combined in cassettes of up to 4
compounds, internal standard is added and samples analysed using Cyprotex generic
LC-MS/MS conditions. From a plot of ln peak area ratio (compound peak area /internal
standard peak area) against time, the gradient of the line is determined. Subsequently, half-
life and intrinsic clearance are calculated using the equations below:
Relevant control compounds are assessed, ensuring intrinsic clearance values fall within the

nitric oxide (NO) = assay: NO release assay (DAF-2) in FFA-stressed cells; assay type: cell-based, human; details: averaged % of increase (+) or decrease (−) compared to control (FFA induced oxidatively stressed endothelial cells), n = 3
Description: The assays focused on the production of nitric oxide (NO) and the upregulation of nitric oxide synthase (eNOS), the production of reactive oxygen species (ROS) and the activity of nicotinamide adenine dinucleotide phosphate (NADPH) oxidase (Table 2). From the hypothesised model of heparan sulfate-glycomimetic activity,[17] the glycomimetics are proposed to attenuate the binding of HGF to the cMET receptor. This disruption to MET-receptor activation is proposed to modulate intracellular phosphorylation leading to an upregulation of eNOS and increased output of extracellular NO. […] Overall, the cross examination of NO output and reduction of ROS was used to determine the therapeutic action of the triaged glycomimetics α-4, R-10, S-10 and β-5, as well as 3 non-sulfated intermediates α-2, α-3 and β-3, on free fatty acid (FFA) induced, oxidatively stressed endothelial cell cultures (Table 2).
Biological assay and AMDET experimental details […]
Preparation of FFA-albumin complexes and cell treatments
To generate the in vitro model of oxidative stress, sodium palmitate was bound to bovine serum albumin (BSA) as outlined by Chavez and Summers,S2 with modifications. Sodium palmitate (FFA) was dissolved in EtOH at 60 °C and diluted 1:100 in M199 media supplemented with 2% fatty acid-free bovine serum albumin (BSA) and incubated for 1 h at 37 °C. HepG2 cells were treated with 1 μmol/L of the synthesized HS-glycomimetics in the presence of palmitate (100 μmol/L) for 3 h or pre-treated with glycomimetics for 12 h followed by 3 h palmitate (100 μmol/L). Control cells were incubated in serum free M199 containing 2% (wt/vol) fatty acid-free BSA.
NO release assay and Quantification of ROS production
NO release was determined using diaminofluorescein-2 (DAF-2).S3 The cells were washed with PBS and incubated with L-arginine (100 μmol/L in PBS) for 5 min at 37 °C before incubation with DAF-2 (0.1 μmol/L) for 2 min, followed by the calcium ionophore calimycin (A23187, 1 μmol L) for 30 min. L-NAME (100 μmol/L), a nitric oxide inhibitor (NOS), was also added 20 min before the addition of L-arginine in some experiments to determine the involvement of NOS. DAF-2 fluorescence (arbitrary units, AU) was quantified using a microplate reader (BioTek) with excitation and emission wavelengths of 485 nm and 540 nm, respectively. The auto-fluorescence was subtracted from each value. […]
H2DCFDA, Sigma) for 30 min at 37 °C, and the level of fluorescence was determined (excitation 490 nm; emission 540 nm) using a microplate reader (BioTek).
The level of NADPH-enhanced superoxide anions (O2•−) in HepG2 homogenates was determined by lucigenin-enhanced chemiluminescence.S4 Following the various treatment conditions, cells were homogenized in a buffer (20 mmol/L H2KPO4 and 1 mmol/L EDTA supplemented with aprotinin, leuprotinin, pepstatin and PMSF). The total protein quantified using the Bicinchoninic acid (BCA) assay (Pierce Biotechnology). To 50 μg of total protein, NADPH (100 μmol/L) was added in a total volume of 500 μL, with lucigenin (5 μmol/L) and was injected automatically. Activity was determined by measuring luminescence over 200 s in a scintillation counter (Lumat LB 9507, Berthold, Germany). Basal values of NADPH oxidase activity were subtracted from the experimental values and expressed as RLU/min/μg protein […]
In situ quantification of ROS species
Superoxide dismutase (SOD) and catalase (CAT) activity assays, and in situ detection of vascular ROS content. The activity of the enzymes, SOD and CAT, was determined in cell homogenates using assay kits according to the manufacturer's instructions (Cayman; Cat No 706002 and 707002 respectively). A unit of SOD was defined as the amount of enzyme […]
Similarly, a unit of CAT was […]
defined as the amount required to form 1.0 nmol of formaldehyde per min at 25 °C.S5

[2] = Microsomal metabolic stability, rat liver microsomes; assay type: in vitro ADME; details: liver microsomes (pooled); for microsomal CLint at 3 µM / microsomal CLint at 0.75 h, 3 µM: pH 7.4; for half-life at 3 µM / half-life at 0.75 h, 3 µM: pH 7.4, 3 µM, 0.5 mg/mL protein, read-out: RLM t1/2
Protocol: Microsomal Metabolic Stability […]
the reaction. The final incubation volume is 50 µL. A minus cofactor control incubation is […]
NADPH (minus NADPH). Two control compounds are included with each species. All incubations are performed singularly for each test compound. Each compound is incubated for 0, 5, 15, 30 and 45 min. The control (minus NADPH) is incubated for 45 min. The reactions […]
Elimination rate constant (k) = (- gradient)
Intrinsic clearance (CLint)(µL/min/mg protein) = where V = Incubation volume (µL)/Microsomal protein (mg) […]
specified limits (if available).
(Molecular Devices LLC), which simultaneously performs electrophysiology measurements for […]
All cell suspensions, buffers and […]

SMILES	half-life at 3 µM [1] [h]	microsomal CLint at 3 µM [1] [µL/min/mg]	NO production (nitric oxide (NO))	microsomal CLint at 3 µM [2] [µL/min/mg]	half-life at 3 µM [2] [h]	half-life at 0.75 h, 3 µM [1] [h]	microsomal CLint at 0.75 h, 3 µM [1] [µL/min/mg]	microsomal CLint at 0.75 h, 3 µM [2] [µL/min/mg]	half-life at 0.75 h, 3 µM [2] [h]
COC(=O)c1cc(OC[C@@H](COS(=O)(=O)[O-])OS(=O)(=O)[O-])ccc1OCC(COS(=O)(=O)[O-])OS(=O)(=O)[O-].[Na+].[Na+].[Na+].[Na+] (mixture of isomers) [α-4, sodium 3-(4-((S)-2,3-bis(sulfonatooxy)propoxy)-2-(methoxycarbonyl)phenoxy)propane-1,2-diyl bis(sulfate)]	30.7	0.755	+110%	9.56	2.42				
O=C([O-])c1cc(OC[C@H](COS(=O)(=O)[O-])OS(=O)(=O)[O-])ccc1OCC(COS(=O)(=O)[O-])OS(=O)(=O)[O-].[Na+].[Na+].[Na+].[Na+].[Na+] (mixture of isomers) [β-5, sodium 5-((R)-2,3-bis(sulfonatooxy)propoxy)-2-(2,3-bis(sulfonatooxy)propoxy)benzoate]	8.03	2.88	+62%	0.649	35.7				
COC(=O)c1cc(OC[C@H](COS(=O)(=O)[O-])OS(=O)(=O)[O-])ccc1OCCCCOS(=O)(=O)[O-].[Na+].[Na+].[Na+] [Compound R-10, sodium (R)-3-(3-(methoxycarbonyl)-4-(4-(sulfonatooxy)butoxy)phenoxy)propane-1,2-diyl bis(sulfate)]			+52%			57.5	0.402	4.11	5.63
COC(=O)c1cc(OC[C@@H](COS(=O)(=O)[O-])OS(=O)(=O)[O-])ccc1OCCCCOS(=O)(=O)[O-].[Na+].[Na+].[Na+] [Compound S-10, sodium (S)-3-(3-(methoxycarbonyl)-4-(4-(sulfonatooxy)butoxy)phenoxy)propane-1,2-diyl bis(sulfate)]			+63%				0.333	12.8	1.82
